Reference: patent US12492188B2, “1H-benzo[D]imidazole derivatives as TLR9 inhibitors for the treatment of fibrosis” (BRISTOL-MYERS SQUIBB COMPANY, priority 2020, dated 2025)
Read-outs that look alike come from different tables or passages of the source.

Target: T1, human TLR9 (Homo sapiens, UniProt Q9NR96)
T1 construct: host or cells: HEK-Blue cells (HEK293-derived reporter line)
T1 sequence (Q9NR96 26-1032): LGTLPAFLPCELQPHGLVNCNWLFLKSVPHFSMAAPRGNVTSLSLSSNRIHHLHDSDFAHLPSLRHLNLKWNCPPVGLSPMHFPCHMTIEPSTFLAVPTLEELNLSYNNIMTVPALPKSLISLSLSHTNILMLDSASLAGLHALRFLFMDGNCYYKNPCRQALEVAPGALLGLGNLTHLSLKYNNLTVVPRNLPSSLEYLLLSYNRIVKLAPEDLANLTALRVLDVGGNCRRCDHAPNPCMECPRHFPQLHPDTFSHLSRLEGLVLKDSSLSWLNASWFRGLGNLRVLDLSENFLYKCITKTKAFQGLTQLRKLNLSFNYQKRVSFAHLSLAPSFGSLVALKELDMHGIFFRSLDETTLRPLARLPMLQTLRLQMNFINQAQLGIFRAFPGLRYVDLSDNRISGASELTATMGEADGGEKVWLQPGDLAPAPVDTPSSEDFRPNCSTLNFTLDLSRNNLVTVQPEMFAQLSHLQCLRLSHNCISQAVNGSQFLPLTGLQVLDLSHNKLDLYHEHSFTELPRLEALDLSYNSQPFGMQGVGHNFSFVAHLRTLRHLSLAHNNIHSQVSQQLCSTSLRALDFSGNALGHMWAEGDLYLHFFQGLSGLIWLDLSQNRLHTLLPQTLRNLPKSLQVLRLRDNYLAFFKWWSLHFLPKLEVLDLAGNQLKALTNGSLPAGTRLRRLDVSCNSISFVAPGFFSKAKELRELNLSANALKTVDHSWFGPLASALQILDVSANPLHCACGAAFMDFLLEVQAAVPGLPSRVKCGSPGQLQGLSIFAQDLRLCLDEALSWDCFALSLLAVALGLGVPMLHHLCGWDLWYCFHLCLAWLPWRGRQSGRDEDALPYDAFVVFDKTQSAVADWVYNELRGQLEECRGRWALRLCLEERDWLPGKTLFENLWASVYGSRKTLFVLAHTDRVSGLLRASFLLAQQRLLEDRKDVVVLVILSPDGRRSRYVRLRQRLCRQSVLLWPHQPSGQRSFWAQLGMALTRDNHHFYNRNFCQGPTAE
Assay: TLR9 inhibition reporter assay (HEK-Blue cells, secreted embryonic alkaline phosphatase reporter)
Format: cell-based
Procedure: TLR7/8/9 Inhibition Reporter Assays
HEK-Blue™-cells (Invivogen) overexpressing human TLR7, TLR8 or TLR9 receptors were used for screening inhibitors of these receptors using an inducible SLAP (secreted embryonic alkaline phosphatase) reporter gene under the control of the […] minimal promoter fused to five NF-κB and AP-1-binding sites. Briefly, cells are seeded into Greiner 384 well plates (15000 cells per well for TLR7, 20,000 for TLR8 and 25,000 for TLR9) and then treated with test compounds in DMSO to yield a final dose response concentration range of 0.05 nM-50 μM. After a 30 minute compound pre-treatment at room temperature, the cells are then stimulated with a TLR7 ligand (gardiquimod at a final concentration of 7.5 μM), TLR8 ligand (R848 at a final concentration of 15.9 μM) or TLR9 ligand (ODN2006 at a final concentration of 5 nM) to activate NF-κB and AP-1 which induce the production of SLAP. After a 22 hour incubation at 37° C., […], SLAP levels are determined with the addition of HEK-Blue™ Detection reagent (Invivogen), a cell culture medium that allows for detection of SLAP, according to manufacturer's specifications. The percent inhibition is determined as the […] in the HEK-Blue signal present in wells treated with agonist plus DMSO alone compared to wells treated with a known inhibitor.

[1] = HEK-Blue cells overexpressing human TLR9, stimulated with ODN2006 5 nM, 22 hour incubation, reporter readout
[2] = HEK-Blue cells overexpressing human TLR9, stimulated with ODN2006 5 nM, read-out: TLR 9 IC50
[3] = HEK-Blue human TLR9 reporter cells

| IC50 [1] [nM] | IC50 [2] [nM] | IC50 [3] [nM] | IC50 [nM] | SMILES |
| --- | --- | --- | --- | --- |
| 890 | 889 | – | – | Cc1cc(C2CCN(C3CC4CCC(C3)N4C3CCC3)CC2)cc2c1nc(-c1ccc(S(C)(=O)=O)c(F)c1)n2C (single isomer, unassigned) [Example 123, 6-(1-(8-cyclobutyl-8-azabicyclo[3.2.1]octan-3-yl)piperidin-4-yl)-2-(3-fluoro-4-(methylsulfonyl)phenyl)-1,4-dimethyl-1H-benzo[d]imidazole] |
| 240 | 241 | – | – | Cc1cc(C2CCN(C3CCN(CC(C)C)CC3)CC2)cc2[nH]c(-c3ccc(OC(F)F)c(F)c3)nc12 [Example 69, 2-(4-(difluoromethoxy)-3-fluorophenyl)-6-(1′-isobutyl-[1,4′-bipiperidin]-4-yl)-4-methyl-1H-benzo[d]imidazole tris(2,2,2-trifluoroacetate)] |
| – | 26 | 26 | – | Cc1cc(C2CCN(C3CC4CCC(C3)N4CC3CC3)CC2)cc2[nH]c(-c3ccc(S(C)(=O)=O)c(F)c3)nc12 (stereo not shown) [Example 352, 6-(1-(8-(cyclopropylmethyl)-8-azabicyclo[3.2.1]octan-3-yl)piperidin-4-yl)-2-(3-fluoro-4-(methylsulfonyl)phenyl)-4-methyl-1H-benzo[d]imidazole] |
| – | 24 | – | 24 | COc1ccc(-c2nc3c(C)cc(C4CCN(C5CC6CCC(C5)N6C(C)C)CC4)cc3n2C)cc1OC (stereo not shown) [Example 145, 2-(3,4-dimethoxyphenyl)-6-(1-(8-isopropyl-8-azabicyclo[3.2.1]octan-3-yl)piperidin-4-yl)-1,4-dimethyl-1H-benzo[d]imidazole] |
| – | 180 | 180 | – | Cc1cc(C2CCN(C3CC4CCC(C3)N4C(C)C)CC2)cc2[nH]c(-c3ccc(S(C)(=O)=O)c(F)c3)nc12 (stereo not shown) [Example 348, 2-(3-fluoro-4-(methylsulfonyl)phenyl)-6-(1-(8-isopropyl-8-azabicyclo[3.2.1]octan-3-yl)piperidin-4-yl)-4-methyl-1H-benzo[d]imidazole] |
| 85 | 85 | – | – | Cc1cc(C2CCN(C3CCN(CC(C)C)CC3)CC2)cc2[nH]c(-c3ccc(C4CC4)cc3)nc12 [Example 68, 2-(4-cyclopropylphenyl)-6-(1′-isobutyl-[1,4′-bipiperidin]-4-yl)-4-methyl-1H-benzo[d]imidazole] |
| – | 59 | – | 59 | COc1ccc(-c2nc3cc(F)c(C4CCN(C5CCN(C6CC6)CC5)CC4)cc3[nH]2)cc1OC [Example 131, 6-(1′-cyclopropyl-[1,4′-bipiperidin]-4-yl)-2-(3,4-dimethoxyphenyl)-5-fluoro-1H-benzo[d]imidazole] |
| – | 653 | – | 650 | Cc1cc(-c2ccc(N3CCN(CC4CC4)CC3)cc2)cc2c1nc(-c1ccc(S(C)(=O)=O)cc1)n2C [Example 171, 6-(4-(4-(cyclopropylmethyl)piperazin-1-yl)phenyl)-1,4-dimethyl-2-(4-(methylsulfonyl)phenyl)-1H-benzo[d]imidazole] |
| – | 20 | – | 21 | Cc1cc(C2CCN(C3CCCN(C(C)C)CC3)CC2)cc2c1nc(-c1ccc(S(C)(=O)=O)cc1)n2C (stereo not shown) [Example 134, 6-(1-(1-isopropylazepan-4-yl)piperidin-4-yl)-1,4-dimethyl-2-(4-(methylsulfonyl)phenyl)-1H-benzo[d]imidazole] |
| – | 48 | 48 | – | Cc1cc(C2CCN(C3CC4CCC(C3)N4CC3CC3)CC2)cc2[nH]c(-c3ccc(S(C)(=O)=O)c(F)c3)nc12 (stereo not shown) [Example 351, 6-(1-(8-(cyclopropylmethyl)-8-azabicyclo[3.2.1]octan-3-yl)piperidin-4-yl)-2-(3-fluoro-4-(methylsulfonyl)phenyl)-4-methyl-1H-benzo[d]imidazole] |
| – | 85 | – | 85 | Cc1cc(C2CCN(C3CC4(C3)CN(CC3CCC3)C4)CC2)cc2c1nc(-c1ccc(S(C)(=O)=O)cc1)n2C [Example 143, 6-(1-(2-(cyclobutylmethyl)-2-azaspiro[3.3]heptan-6-yl)piperidin-4-yl)-1,4-dimethyl-2-(4-(methylsulfonyl)phenyl)-1H-benzo[d]imidazole] |
